Test results reported in patent US11760795B2, “Monoclonal antibodies to growth and differentiation factor 15 (GDF-15), and uses thereof for treating cancer cachexia and cancer” (JULIUS-MAXIMILIANS-UNIVERSITÄT WÜRZBURG, priority 2014, dated 2023).
Values joined by “and” are separate entries in the source; they are usually repeats but may differ in a detail not shown here. Equal values may be shown once.

Experiments:
[1] = Study No. 140123: feed consumption of UACC-257 inoculated mice; format: in vivo, Balb/c^nu/nu mice; details: average over day 17-34 intervals, with standard deviation
Protocol: Treatment of cancer-induced weight loss with anti-GDF-15 antibodies. In the underlying animal study No. 140123, 10 Balb/c^nu/nu mice per treatment group were subcutaneously inoculated with 10×10^6 UACC-257 cells per animal in a 1:1 volume ratio with matrigel (100 μl cells+100 μl matrigel). The animals were treated on the same day with the respective antibodies, as indicated below:
In addition to evaluating the mean body weight of the mice, the feed consumption of the mice was evaluated by pairwise comparisons of the study groups (Table 1).

human GDF-15 = target: T1, human GDF-15 (Homo sapiens, UniProt Q99988); assay: Kd determination by Surface Acoustic Wave (SAW) gold chip biosensors; format: binding; details: murine B1-23 stabilized with 0.2% BSA, H1L5 as CHO supernatant
T1 sequence (Q99988 with tags, fused parts or gaps limits assumed): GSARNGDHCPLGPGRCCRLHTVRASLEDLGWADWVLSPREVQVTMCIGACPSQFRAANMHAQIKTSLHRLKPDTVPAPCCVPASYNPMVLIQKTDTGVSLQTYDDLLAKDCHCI
From the text: Determination of Kd values of anti-GDF-15 antibodies. The Kd values of different anti-GDF-15 antibodies were compared using Surface Acoustic Wave (SAW) gold chip biosensors technology (SAW Instruments GmbH, Schwertberger Str. 16, D-53177 Bonn, Germany):
The murine antibody (B1-23) as well as the chimeric B1-23 antibody were present in purified form. The H1L5 humanized B1-23 antibody was a serum-free CHO cell culture supernatant.

[2] = comparison value, antigen not given; read-out: equilibrium dissociation constant of therapeutic antibody; cited from earlier work

Compound	Feed consumption per mouse and day [1] [g]	Kd (human GDF-15) [nM]	Kd [2]
CN(C)/N=N/c1[nH]cnc1C(N)=O [dacarbazine, Dacarbazine, reference compound]	2.8 ± 0.2		
Rituximab: therapeutically used antibody; control antibody in SAW assay		1120	~8 nM and 8 nM
